In ChEMBL document CHEMBL1201862, “PubChem BioAssay data set” (2004):
The source made the active and inactive calls.

Assays:
[1] = molecular target: RNA-editing ligase 1, mitochondrial (Trypanosoma brucei brucei, UniProt P86926); assay: TbREL1 ligase inhibitors, dose response, biochemical, fluorescence, Trypanosoma brucei (AID 1117295); type: functional
[2] = P. falciparum 3D7-ScDHODH growth inhibitors, dose response, SYBR Green, dry powder samples (AID 1159570); type: functional, cell-based;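 further: parasite growth measured after 72 hours of compound exposure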
[3] = HepG2 cell cytotoxicity, dose response, cytotoxicity control, plate reader, dry powder samples (AID 1159569); type: functional, cell-based;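 further: inhibitor potency with signal falling toward the positive control level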
[4] = P. falciparum ATP4 D1247Y mutant growth inhibitors, dose response, NITD609-resistant line, SYBR Green, dry powder (AID 1159571); type: functional, cell-based;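 further: parasites synchronized at ring stage by sorbitol before testing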
[5] = P. falciparum Dd2 growth inhibitors, dose response, SYBR Green, cherry-picked samples (AID 1159567); type: functional, cell-based
[6] = P. falciparum Dd2 growth inhibitors, dose response, SYBR Green, dry powder samples (AID 1159566); type: functional, cell-based;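 further: potency for growth inhibition with lower SYBR green DNA signal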
[7] = molecular target: T1, Polyadenylate-binding protein 1 (Homo sapiens, UniProt P11940); assay: PABP1 MLLE–PAM2 interaction inhibitors, dose response, miRNA deadenylation inhibitor project, biochemical, fluorescence polarization, Cy5-PAM2 peptide, secondary (AID 602260); type: functional; details: read-out: IC50_Mean
[8] = HEK293 cell cytotoxicity, dose response, cytotoxicity control, plate reader, cherry-picked samples (AID 743446); type: functional, cell-based
[9] = molecular target: T2, Replicative DNA helicase DnaB (Mycobacterium tuberculosis, UniProt P9WMR3); assay: DnaB intein splicing inhibitors, dose response, biochemical, cell-free fluorescence (AID 449749); type: functional
T2 sequence (P9WMR3 whole entry): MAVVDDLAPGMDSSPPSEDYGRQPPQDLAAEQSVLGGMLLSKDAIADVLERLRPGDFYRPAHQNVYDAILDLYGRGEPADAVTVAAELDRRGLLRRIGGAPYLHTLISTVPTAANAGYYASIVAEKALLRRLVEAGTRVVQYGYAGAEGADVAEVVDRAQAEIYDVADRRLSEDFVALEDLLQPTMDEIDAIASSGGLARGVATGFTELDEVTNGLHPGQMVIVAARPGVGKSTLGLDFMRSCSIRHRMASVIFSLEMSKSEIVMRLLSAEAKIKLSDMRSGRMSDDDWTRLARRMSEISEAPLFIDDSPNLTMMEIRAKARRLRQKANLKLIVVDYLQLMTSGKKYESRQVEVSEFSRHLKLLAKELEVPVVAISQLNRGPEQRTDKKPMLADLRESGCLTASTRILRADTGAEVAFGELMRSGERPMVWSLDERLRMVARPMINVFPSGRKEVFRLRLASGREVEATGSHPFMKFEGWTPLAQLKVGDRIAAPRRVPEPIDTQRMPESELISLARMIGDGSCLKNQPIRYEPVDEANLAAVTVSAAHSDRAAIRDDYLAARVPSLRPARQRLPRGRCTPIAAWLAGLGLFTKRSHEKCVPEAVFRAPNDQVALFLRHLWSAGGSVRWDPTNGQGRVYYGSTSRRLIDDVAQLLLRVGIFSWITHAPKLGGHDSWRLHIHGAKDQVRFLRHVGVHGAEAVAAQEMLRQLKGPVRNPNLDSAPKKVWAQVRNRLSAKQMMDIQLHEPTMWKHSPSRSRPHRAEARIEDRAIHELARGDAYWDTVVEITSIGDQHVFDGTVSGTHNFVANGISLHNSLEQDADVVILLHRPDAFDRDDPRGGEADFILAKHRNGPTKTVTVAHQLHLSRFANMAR

[10] = Shn3 3'UTR reporter inhibitors, dose response, cell-based, Clone20 osteoblasts, firefly luciferase, cherry-picked (AID 624132); type: functional;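 further: firefly luciferase luminescence from reporter carrying the Shn3 3'UTR in osteoblasts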
[11] = A549 cell cytotoxicity, dose response, cytotoxicity control, plate reader, cherry-pick, antagonist series (AID 743412); type: functional, cell-based
[12] = cytotoxicity toward NIH3T3 fibroblasts, dose response, counter-screen, cell-based, ATP luminescence, mouse fibroblasts (AID 2010); type: functional;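 further: cells exposed to compound for about 90 hours before reading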
[13] = inhibitors of intracellular T. cruzi replication, confirmation, NIH3T3 host cells, beta-gal luminescence (AID 2044); type: functional, cell-based;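 further: intracellular parasites grown in NIH/3T3 mouse fibroblasts as host cells; luminescent beta-galactosidase reporter signal from transgenic T. cruzi replicating inside host cells; inhibitors lower the luminescence signal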
[14] = molecular target: T3, Short transient receptor potential channel 4 (Mus musculus, UniProt Q9QUQ5); assay: mouse TRPC4 channel inhibitors, dose response, cell-based, HEK293 TRPC4/mu-opioid, Fluo-4 calcium (AID 434942); type: functional;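 further: potency of inhibitors blocking the TRPC4 calcium response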
T3 sequence (Q9QUQ5 whole entry): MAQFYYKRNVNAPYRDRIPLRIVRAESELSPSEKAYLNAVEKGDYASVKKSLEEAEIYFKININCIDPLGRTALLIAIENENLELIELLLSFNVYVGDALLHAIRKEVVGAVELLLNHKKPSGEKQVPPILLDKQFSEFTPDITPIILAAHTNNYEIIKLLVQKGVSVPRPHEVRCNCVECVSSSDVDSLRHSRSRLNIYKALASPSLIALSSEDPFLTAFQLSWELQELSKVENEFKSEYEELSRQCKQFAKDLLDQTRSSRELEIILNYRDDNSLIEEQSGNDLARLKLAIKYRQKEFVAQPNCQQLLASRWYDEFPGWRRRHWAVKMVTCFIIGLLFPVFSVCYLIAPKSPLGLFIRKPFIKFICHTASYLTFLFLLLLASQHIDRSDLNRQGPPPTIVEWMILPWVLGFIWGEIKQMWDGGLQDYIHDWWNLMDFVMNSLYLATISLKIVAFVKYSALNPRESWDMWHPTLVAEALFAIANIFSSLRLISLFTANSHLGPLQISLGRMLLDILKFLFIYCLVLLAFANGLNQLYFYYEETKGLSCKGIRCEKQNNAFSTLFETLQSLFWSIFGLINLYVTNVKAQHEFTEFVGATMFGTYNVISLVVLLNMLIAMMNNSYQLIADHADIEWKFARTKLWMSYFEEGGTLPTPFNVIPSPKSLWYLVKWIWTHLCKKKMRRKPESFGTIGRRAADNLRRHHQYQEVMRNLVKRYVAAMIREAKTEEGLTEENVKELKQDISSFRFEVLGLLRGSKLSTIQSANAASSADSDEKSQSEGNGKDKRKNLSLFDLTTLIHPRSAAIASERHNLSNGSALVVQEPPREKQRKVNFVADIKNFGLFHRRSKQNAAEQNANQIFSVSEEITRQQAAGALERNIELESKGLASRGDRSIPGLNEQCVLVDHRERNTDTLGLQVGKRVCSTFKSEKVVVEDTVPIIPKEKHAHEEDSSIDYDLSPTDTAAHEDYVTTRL

[15] = HepG2 cell cytotoxicity, dose response, cytotoxicity control, plate reader, cherry-pick, antagonist series (AID 743416); type: functional, cell-based
[16] = molecular target: Heat shock protein HSP 90-alpha (Homo sapiens, UniProt P07900); type: functional, organism-based
[17] = molecular target: Bifunctional protein GlmU (Mycobacterium tuberculosis, UniProt P9WMN3); assay: Inhibitors of Mycobacterial Glucosamine-1-phosphate acetyl transferase (GlmU). Secondary screen.; design: species or system Mycobacterium tuberculosis H37Rv
[18] = LGR2 antagonists, dose response, cell-based, HEK293, CRE-luciferase reporter, cherry pick, set 2 (AID 743343); type: functional;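 further: transfected cells were stimulated with diluted bursicon conditioned medium after compound addition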
Beta Lactamase = Beta Lactamase (Pseudomonas aeruginosa, UniProt Q932Y6); assay: beta-lactamase reporter inhibitor potency, dose response, artefact control for TLR9-MyD88 binding inhibitor project, BLA reporter cells, FRET fluorescence (AID 588341); type: cell-based;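 further: cell based assay in CHO-K1 cells stably expressing beta-lactamase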
[19] = molecular target: T1, Polyadenylate-binding protein 1; assay: PABP1 MLLE–PAM2 binding inhibitor potency, dose response, biochemical, fluorescence polarization, FITC-PAM2 peptide (AID 602259); type: functional; details: read-out: IC50_Mean
[20] = control 3'UTR Renilla luciferase suppression, dose response, counter-screen for Shn3 inhibitor project, cell-based, Clone20-Shn3RL, cherry-picked (AID 624133); type: functional
[21] = MC4R antagonists, dose response, counter-screen for LGR2 antagonist project, cell-based, plate reader, cherry pick (AID 743444); type: functional;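 further: transfected HEK 293 cells stimulated with alpha-MSH peptide; potency of inhibitors of the alpha-MSH evoked signal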
[22] = inhibitors of PGC1a acetylation in cells, dose response, cell-based, cherry-picked samples (AID 720514); type: functional;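 further: potency may reflect raised or lowered acetylation signal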
[23] = HepG2 cell cytotoxicity, dose response, cytotoxicity control for Shn3 inhibitor project, CellTiter-Glo, cherry-picked (AID 624134); type: functional, cell-based
CHO = assay: cytotoxicity in TLR9-MyD88 CHO cells, dose response, cytotoxicity control for TLR9-MyD88 binding inhibitor project, cell-based, luminescence (AID 588339); type: functional, hamster; details: Cricetulus griseus;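 further: CHO cells stably coexpressing TLR9 and MyD88 fusions from primary screen; compound exposure lasted 48 hours before viability readout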
Protein RecA = molecular target: T4, Protein RecA (Mycobacterium tuberculosis, UniProt P9WHJ3); assay: Fluorescence Cell-Free Homogeneous Dose Retest to Identify Inhibitors of RecA-Intein Splicing Activity. [Related pubchem assays (depositor defined):AID2097, AID2223, AID489010, AID492950]; type: functional
T4 sequence (P9WHJ3 whole entry): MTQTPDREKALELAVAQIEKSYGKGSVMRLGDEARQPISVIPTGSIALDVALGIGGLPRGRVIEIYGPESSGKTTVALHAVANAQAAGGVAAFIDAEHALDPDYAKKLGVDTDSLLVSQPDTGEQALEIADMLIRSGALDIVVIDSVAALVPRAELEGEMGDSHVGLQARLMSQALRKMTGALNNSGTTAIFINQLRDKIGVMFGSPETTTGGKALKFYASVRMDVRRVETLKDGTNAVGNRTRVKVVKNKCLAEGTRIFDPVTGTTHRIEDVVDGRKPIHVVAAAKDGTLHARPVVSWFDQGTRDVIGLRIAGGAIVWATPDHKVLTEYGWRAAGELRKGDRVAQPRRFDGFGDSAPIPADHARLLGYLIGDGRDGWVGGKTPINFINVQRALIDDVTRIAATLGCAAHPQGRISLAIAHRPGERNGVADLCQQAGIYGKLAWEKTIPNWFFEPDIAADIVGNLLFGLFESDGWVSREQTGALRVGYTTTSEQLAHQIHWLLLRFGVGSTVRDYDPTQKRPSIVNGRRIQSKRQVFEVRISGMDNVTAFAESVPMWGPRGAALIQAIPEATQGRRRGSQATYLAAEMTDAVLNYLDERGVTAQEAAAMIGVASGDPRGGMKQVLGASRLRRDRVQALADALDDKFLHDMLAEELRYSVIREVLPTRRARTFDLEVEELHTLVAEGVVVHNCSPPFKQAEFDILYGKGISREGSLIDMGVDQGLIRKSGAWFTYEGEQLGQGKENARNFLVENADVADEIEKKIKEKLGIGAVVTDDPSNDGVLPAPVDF

T1 sequence (P11940 whole entry): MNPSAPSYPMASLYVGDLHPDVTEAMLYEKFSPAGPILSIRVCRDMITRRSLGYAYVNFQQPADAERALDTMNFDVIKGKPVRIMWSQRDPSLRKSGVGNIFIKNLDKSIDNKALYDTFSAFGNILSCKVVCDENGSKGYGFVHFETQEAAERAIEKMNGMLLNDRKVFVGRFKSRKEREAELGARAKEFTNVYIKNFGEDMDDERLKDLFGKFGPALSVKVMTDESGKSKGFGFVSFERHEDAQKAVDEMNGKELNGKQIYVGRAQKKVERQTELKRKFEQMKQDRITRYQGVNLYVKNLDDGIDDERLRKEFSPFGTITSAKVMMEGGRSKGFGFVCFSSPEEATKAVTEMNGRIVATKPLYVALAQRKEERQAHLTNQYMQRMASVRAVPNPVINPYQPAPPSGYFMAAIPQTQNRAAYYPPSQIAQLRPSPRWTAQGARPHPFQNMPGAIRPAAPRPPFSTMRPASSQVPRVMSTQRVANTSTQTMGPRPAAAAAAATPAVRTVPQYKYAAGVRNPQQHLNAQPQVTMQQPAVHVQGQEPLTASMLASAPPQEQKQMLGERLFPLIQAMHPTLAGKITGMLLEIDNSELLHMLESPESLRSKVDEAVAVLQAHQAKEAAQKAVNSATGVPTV
RNA-editing ligase 1, mitochondrial, sequence (P86926 whole entry): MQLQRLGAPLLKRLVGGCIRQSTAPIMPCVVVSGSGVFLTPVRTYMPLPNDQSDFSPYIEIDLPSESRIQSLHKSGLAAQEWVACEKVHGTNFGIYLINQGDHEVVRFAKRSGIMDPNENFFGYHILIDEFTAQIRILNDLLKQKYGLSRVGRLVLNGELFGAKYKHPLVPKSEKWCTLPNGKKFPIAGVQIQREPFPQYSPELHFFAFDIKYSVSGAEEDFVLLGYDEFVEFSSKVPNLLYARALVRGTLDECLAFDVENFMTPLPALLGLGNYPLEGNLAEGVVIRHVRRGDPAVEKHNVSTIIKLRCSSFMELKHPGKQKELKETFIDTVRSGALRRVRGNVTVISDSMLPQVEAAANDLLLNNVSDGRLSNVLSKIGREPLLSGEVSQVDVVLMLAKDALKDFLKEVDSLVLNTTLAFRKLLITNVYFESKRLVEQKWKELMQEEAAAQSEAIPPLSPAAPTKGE
Bifunctional protein GlmU, sequence (P9WMN3 whole entry): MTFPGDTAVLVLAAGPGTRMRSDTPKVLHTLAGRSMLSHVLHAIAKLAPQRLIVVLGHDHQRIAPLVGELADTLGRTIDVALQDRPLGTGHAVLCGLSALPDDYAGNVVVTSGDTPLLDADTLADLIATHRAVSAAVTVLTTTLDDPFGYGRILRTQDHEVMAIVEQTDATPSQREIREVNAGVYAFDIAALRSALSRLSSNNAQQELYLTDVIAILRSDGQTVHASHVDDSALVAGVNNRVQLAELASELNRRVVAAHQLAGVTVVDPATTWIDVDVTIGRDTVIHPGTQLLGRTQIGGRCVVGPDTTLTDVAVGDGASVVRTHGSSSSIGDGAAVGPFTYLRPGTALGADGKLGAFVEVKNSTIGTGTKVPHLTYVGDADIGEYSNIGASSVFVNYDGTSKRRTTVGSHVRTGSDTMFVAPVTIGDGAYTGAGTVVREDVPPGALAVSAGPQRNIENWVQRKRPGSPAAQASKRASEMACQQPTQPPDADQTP
Beta Lactamase, sequence (Q932Y6 whole entry): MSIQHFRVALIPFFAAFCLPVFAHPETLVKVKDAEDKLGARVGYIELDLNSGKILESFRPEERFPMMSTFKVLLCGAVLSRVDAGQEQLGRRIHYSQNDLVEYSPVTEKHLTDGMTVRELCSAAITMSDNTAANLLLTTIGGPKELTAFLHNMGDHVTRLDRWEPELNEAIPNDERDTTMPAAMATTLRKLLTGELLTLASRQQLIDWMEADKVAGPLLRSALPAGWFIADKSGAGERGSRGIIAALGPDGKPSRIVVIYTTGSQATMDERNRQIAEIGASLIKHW

COC(=O)C1=C(C)N(C)C(NCc2ccccc2C(F)(F)F)=NC1c1cccc(F)c1 (stereo unspecified)
IC50 [1]: > 96.6 µM (inactive)

COc1ccc(C#Cc2ccc([C@@H]3[C@@H](CO)N4C(=O)CN(C(=O)c5ccccc5)C[C@H]34)cc2)cc1
AC50 [2]: 1.99 µM (active) | AC50 [3]: 33.4 µM (active) | AC50 [4]: 1.35 µM (active) | AC50 [5]: 2.48 µM (active) | AC50 [6]: 1.63 µM (active)

CCCNC(=O)c1nnsc1[S+]([O-])c1ccc(Cl)cc1 (stereo unspecified)
IC50 [7]: > 66 µM (inactive) | AC50 [8]: 16 µM (active) | AC50 [9]: 33.8 µM (active) | AC50 [10]: 1.26 µM (active) | AC50 [11]: 4.44 µM (active) | EC50 [12]: 2.21 µM (active) | EC50 [13]: 0.886 µM (active) | EC50 [14]: 7.5 µM (active) | AC50 [15]: 7.07 µM (active) | AC50 [16]: 2.2 µM (active) | IC50 [17]: 103 µM (active) | AC50 [18]: 1.85 µM (active) | IC50 (Beta Lactamase): 15.6 µM (inactive) | IC50 [19]: > 66 µM (inactive) | AC50 [20]: 6.98 µM (active) | AC50 [21]: 2.29 µM (active) | AC50 [22]: 12.8 µM (active) | AC50 [23]: 29.7 µM (active) | IC50 (CHO): 1.81 µM (active) | EC50 (Protein RecA): 24.4 µM (inconclusive)
